Broadly, the stoichiometry N is a count of units in the complex or per binding partner.

The record followed here is article PMC4979012, “Structural basis for cytokinin production by LOG from Corynebacterium glutamicum” (Scientific Reports, 2016).

The target in experiment [1] is T1, CgLOG (Cg2612) (Corynebacterium glutamicum, UniProt Q8NN34, S19A).
T1 construct: gene Cgl2379; full-length, C-terminal 6xHis (pET30a), E. coli BL21(DE3); dimer; residues 2-195 seen in crystal; active site at dimer interface
Put plainly: phosphoribohydrolase assay, TLC with UV detection of adenine. As to conditions: 20 mM AMP, 36 mM Tris-HCl pH 8.0, 30 °C, 23 μM enzyme. Type of experiment: biochemical.

Experiment [2] has as its target T2, CgLOG (Cg2612) (Corynebacterium glutamicum, UniProt Q8NN34).
T2 construct: gene Cgl2379; full-length, C-terminal 6xHis (pET30a), E. coli BL21(DE3); dimer; residues 2-195 seen in crystal; active site at dimer interface
T2 sequence (Q8NN34 1-195): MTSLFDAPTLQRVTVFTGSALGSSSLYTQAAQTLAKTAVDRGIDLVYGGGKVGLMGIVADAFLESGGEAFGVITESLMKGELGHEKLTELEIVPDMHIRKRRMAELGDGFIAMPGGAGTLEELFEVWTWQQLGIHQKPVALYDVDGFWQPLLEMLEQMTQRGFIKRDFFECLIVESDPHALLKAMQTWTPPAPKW
The description is as above. Type of experiment: biochemical. As to conditions: 20 mM AMP, 36 mM Tris-HCl pH 8.0, 30 °C, 23 μM enzyme.

The target of experiment [3] is LOG from Corynebacterium glutamicum ATCC 13032 (gene product of Cg2612) (Corynebacterium glutamicum ATCC 13032). Put plainly: SAXS; solution SAXS at 4 °C, CgLOG 0.5 ~ 4.5 mg/ml; molecular mass by the QR method.
For experiment [4] the target is unchanged. Put plainly: SEC; analytical, Superdex 200 10/300, 150 mM NaCl, 300 μL of 3 mg/ml protein; molecular weight from a calibration curve of standards.

T1 sequence (Q8NN34 entry or part of it S19A): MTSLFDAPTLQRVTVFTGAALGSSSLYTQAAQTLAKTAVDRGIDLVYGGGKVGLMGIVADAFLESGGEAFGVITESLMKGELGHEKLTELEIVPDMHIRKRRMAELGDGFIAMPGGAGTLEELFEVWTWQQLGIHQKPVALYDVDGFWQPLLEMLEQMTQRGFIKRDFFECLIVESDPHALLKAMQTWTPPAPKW

Regarding `Nc1ncnc2c1ncn2[C@@H]1O[C@H](COP(=O)(O)O)[C@@H](O)[C@H]1O` [AMP], the “phosphoribohydrolase assay, TLC with UV detection of adenine” value on CgLOG (Cg2612) [1] was “One exception is S19A mutant which shows higher activity than the wild-type”; on CgLOG (Cg2612) [2], “we observed that Cg2612 has phosphoribohydrolase activity”.
As to “LOG from Corynebacterium glutamicum ATCC 13032 (gene product of Cg2612) (enzyme)”, the stoichiometry N in experiment [3] and in experiment [4] was 2 in each case.
